# In PubChem BioAssay AID1259407 (Chemical Carcinogenesis Research Information System (CCRIS), 2018):
# The source made the active and inactive calls. How the calls were made is not given here.
# Tested on: CCRIS mutagenicity, Ames/micronucleus/aberration tests
# Assay: CCRIS mutagenicity studies
# [1] = Test System: AMES SALMONELLA TYPHIMURIUM, Strain/Indicator: TA98, Metabolic Activation: NONE, Method: PREINCUBATION
# [2] = Test System: AMES SALMONELLA TYPHIMURIUM, Strain/Indicator: TA98, Metabolic Activation: NONE, Method: STANDARD PLATE
# [3] = Test System: AMES SALMONELLA TYPHIMURIUM, Strain/Indicator: TA100, Metabolic Activation: NONE, Method: STANDARD PLATE
# [4] = Test System: AMES SALMONELLA TYPHIMURIUM, Strain/Indicator: TA100, Metabolic Activation: NONE, Method: PREINCUBATION
structure (smiles),measurement,setting,value
c1ccc2c(c1)-c1cc3ccccc3cc1[C@H]1O[C@@H]21,mutagenic call,[1],active; positive
same,mutagenic call,[2],active; positive
same,mutagenic call,[3],active; positive
same,mutagenic call,"Test System: CHINESE HAMSTER V-79, Strain/Indicator: V-79/8-AZAGUANINE, Metabolic Activation: NONE, Method: STANDARD PLATE",active; positive
same,mutagenic call,"Test System: UDS HUMAN FIBROBLASTS, Strain/Indicator: THY INCORP (NON-S-PHASE), Metabolic Activation: NONE, Method: AUTORADIOGRAPHY",active; positive
CN(C)CCCNc1c2ccccc2nc2ccccc12,mutagenic call,"Test System: AMES SALMONELLA TYPHIMURIUM, Strain/Indicator: TA98(1,8-DNP6), Metabolic Activation: NONE, Method: STANDARD PLATE",inactive; negative
same,mutagenic call,"Test System: AMES SALMONELLA TYPHIMURIUM, Strain/Indicator: TA98(1,8-DNP6), Metabolic Activation: RAT, LIVER, S-9, Method: STANDARD PLATE",inactive; negative
same,mutagenic call,"Test System: AMES SALMONELLA TYPHIMURIUM, Strain/Indicator: TA98(NR), Metabolic Activation: NONE, Method: STANDARD PLATE",inactive; negative
same,mutagenic call,"Test System: AMES SALMONELLA TYPHIMURIUM, Strain/Indicator: TA98(NR), Metabolic Activation: RAT, LIVER, S-9, Method: STANDARD PLATE",active; positive
same,mutagenic call,[2],inactive; negative
same,mutagenic call,"Test System: AMES SALMONELLA TYPHIMURIUM, Strain/Indicator: TA98, Metabolic Activation: RAT, LIVER, S-9, Method: STANDARD PLATE",inactive; negative
same,mutagenic call,[3],inactive; negative
same,mutagenic call,"Test System: AMES SALMONELLA TYPHIMURIUM, Strain/Indicator: TA1535, Metabolic Activation: NONE, Method: STANDARD PLATE",inactive; negative
same,mutagenic call,"Test System: AMES SALMONELLA TYPHIMURIUM, Strain/Indicator: TA1537, Metabolic Activation: NONE, Method: STANDARD PLATE",active; positive
same,mutagenic call,"Test System: AMES SALMONELLA TYPHIMURIUM, Strain/Indicator: TA1537 PKM101, Metabolic Activation: NONE, Method: STANDARD PLATE",active; positive
same,mutagenic call,"Test System: AMES SALMONELLA TYPHIMURIUM, Strain/Indicator: TA1538, Metabolic Activation: NONE, Method: STANDARD PLATE",active; positive
same,mutagenic call,"Test System: CHINESE HAMSTER V-79, Strain/Indicator: V-79/6-THIOGUANINE, Metabolic Activation: NONE, Method: STANDARD PLATE",inactive; negative
same,mutagenic call,"Test System: CHINESE HAMSTER V-79, Strain/Indicator: V-79/OUABAIN, Metabolic Activation: NONE, Method: STANDARD PLATE",inactive; negative
same,mutagenic call,"Test System: Escherichia coli, Strain/Indicator: CC107 (G6 to G7 frameshifts), Metabolic Activation: None, Method: Modified preincubation",active; positive
same,mutagenic call,"Test System: Escherichia coli, Strain/Indicator: CC108 (G6 to G5 frameshifts), Metabolic Activation: None, Method: Modified preincubation",active; positive
same,mutagenic call,"Test System: Escherichia coli, Strain/Indicator: CC109 (CG5 to CG4 frameshifts), Metabolic Activation: None, Method: Modified preincubation",active; positive
same,mutagenic call,"Test System: Escherichia coli, Strain/Indicator: CC111 (A7 to A6 frameshifts), Metabolic Activation: None, Method: Modified preincubation",active; positive
COC(=O)C1=C(C)NC(C)=C(C(=O)OCC(C)=O)C1c1ccccc1[N+](=O)[O-] (stereo not drawn),mutagenic call,[1],inactive; negative
same,mutagenic call,"Test System: AMES SALMONELLA TYPHIMURIUM, Strain/Indicator: TA98, Metabolic Activation: S-9, Method: PREINCUBATION",inactive; negative
same,mutagenic call,[4],inactive; negative
same,mutagenic call,"Test System: AMES SALMONELLA TYPHIMURIUM, Strain/Indicator: TA100, Metabolic Activation: S-9, Method: PREINCUBATION",inactive; negative
same,mutagenic call,"Test System: AMES SALMONELLA TYPHIMURIUM, Strain/Indicator: TA1535, Metabolic Activation: NONE, Method: PREINCUBATION",inactive; negative
same,mutagenic call,"Test System: AMES SALMONELLA TYPHIMURIUM, Strain/Indicator: TA1535, Metabolic Activation: S-9, Method: PREINCUBATION",inactive; negative
same,mutagenic call,"Test System: AMES SALMONELLA TYPHIMURIUM, Strain/Indicator: TA1537, Metabolic Activation: NONE, Method: PREINCUBATION",inactive; negative
same,mutagenic call,"Test System: AMES SALMONELLA TYPHIMURIUM, Strain/Indicator: TA1537, Metabolic Activation: S-9, Method: PREINCUBATION",inactive; negative
same,mutagenic call,"Test System: E.COLI, Strain/Indicator: WP2 UVRA, Metabolic Activation: NONE, Method: PREINCUBATION",inactive; negative
same,mutagenic call,"Test System: E.COLI, Strain/Indicator: WP2 UVRA, Metabolic Activation: S-9, Method: PREINCUBATION",inactive; negative
CCOP(=S)(OCC)SCCl,mutagenic call,"Test System: AMES SALMONELLA TYPHIMURIUM, Strain/Indicator: TA98, Metabolic Activation: NONE",inactive; negative
same,mutagenic call,[2],inactive; negative
same,mutagenic call,"Test System: AMES SALMONELLA TYPHIMURIUM, Strain/Indicator: TA98, Metabolic Activation: RAT, LIVER, S-9, SODIUM PHENOBARBITAL, Method: STANDARD PLATE",inactive; negative
same,mutagenic call,"Test System: AMES SALMONELLA TYPHIMURIUM, Strain/Indicator: TA98, Metabolic Activation: S-9",inactive; negative
same,mutagenic call,"Test System: AMES SALMONELLA TYPHIMURIUM, Strain/Indicator: TA100, Metabolic Activation: NONE",inactive; negative
same,mutagenic call,[3],inactive; negative
same,mutagenic call,"Test System: AMES SALMONELLA TYPHIMURIUM, Strain/Indicator: TA100, Metabolic Activation: RAT, LIVER, S-9, SODIUM PHENOBARBITAL, Method: STANDARD PLATE",inactive; negative
same,mutagenic call,"Test System: AMES SALMONELLA TYPHIMURIUM, Strain/Indicator: TA100, Metabolic Activation: S-9",inactive; negative
same,mutagenic call,"Test System: E. COLI, Strain/Indicator: WP2, Metabolic Activation: NONE",inactive; negative
same,mutagenic call,"Test System: E. COLI, Strain/Indicator: WP2, Metabolic Activation: RAT, LIVER, S-9, SODIUM PHENOBARBITAL, Method: STANDARD PLATE",inactive; negative
same,mutagenic call,"Test System: E. COLI, Strain/Indicator: WP2, Metabolic Activation: S-9",inactive; negative
same,mutagenic call,"Test System: E. COLI, Strain/Indicator: WP2 UVRA, Metabolic Activation: NONE",inactive; negative
same,mutagenic call,"Test System: E. COLI, Strain/Indicator: WP2 UVRA, Metabolic Activation: RAT, LIVER, S-9, SODIUM PHENOBARBITAL, Method: STANDARD PLATE",inactive; negative
same,mutagenic call,"Test System: E. COLI, Strain/Indicator: WP2 UVRA, Metabolic Activation: S-9",inactive; negative
Cc1ccc(C)c([N+](=O)[O-])c1,mutagenic call,[1],inactive; negative
same,mutagenic call,"Test System: AMES SALMONELLA TYPHIMURIUM, Strain/Indicator: TA98, Metabolic Activation: RAT, LIVER, S-9, KANECHLOR 500, Method: PREINCUBATION",inactive; negative
same,mutagenic call,[4],inactive; negative
same,mutagenic call,"Test System: AMES SALMONELLA TYPHIMURIUM, Strain/Indicator: TA100, Metabolic Activation: RAT, LIVER, S-9, KANECHLOR 500, Method: PREINCUBATION",active; positive
CCCCCCCCCCCCCC(=O)O[C@@H]1[C@@H](C)[C@@]2(O)[C@@H](C=C(CO)C[C@]3(O)C(=O)C(C)=C[C@@H]23)[C@@H]2C(C)(C)[C@]12OC(C)=O,mutagenic call,"End Point: IN VITRO CHROMOSOMAL ABERRATIONS, Test System: CHL/IU CELLS, Metabolic Activation: NONE",inactive; negative
same,mutagenic call,"End Point: IN VITRO MICRONUCLEUS, Test System: CHL/IU CELLS, Metabolic Activation: NONE",inactive; negative
Cc1cnc(C)cn1,mutagenic call,[1],inactive; negative
same,mutagenic call,"Test System: AMES SALMONELLA TYPHIMURIUM, Strain/Indicator: TA98, Metabolic Activation: RAT, LIVER, S-9, AROCLOR 1254, Method: PREINCUBATION",inactive; negative
same,mutagenic call,[4],inactive; negative
same,mutagenic call,"Test System: AMES SALMONELLA TYPHIMURIUM, Strain/Indicator: TA100, Metabolic Activation: RAT, LIVER, S-9, AROCLOR 1254, Method: PREINCUBATION",inactive; negative
same,mutagenic call,"Test System: AMES SALMONELLA TYPHIMURIUM, Strain/Indicator: TA102, Metabolic Activation: NONE, Method: PREINCUBATION",inactive; negative
same,mutagenic call,"Test System: AMES SALMONELLA TYPHIMURIUM, Strain/Indicator: TA102, Metabolic Activation: RAT, LIVER, S-9, AROCLOR 1254, Method: PREINCUBATION",inactive; negative
